Assay results: ChEMBL document CHEMBL6182856, “Novel one-/two-photon excited carbazole/quinolinium photosensitizers manifest nanomolar and hypoxia-resistant tumor photodynamic therapy by accelerating apoptosis, ferroptosis, and autophagy” (Eur J Med Chem, 2025)
The source made the active and inactive calls. The calls are words filed in the database; no cut-off is given here.

Key:
[1] = Phototherapeutic index, ratio of IC50 for cytotoxicity against human A549 cells measured under normoxia conditions to IC50 for phototoxicity against human A549 cells measured under normoxia conditions and after two-photon excitation upon irradiation with light at 808 nm, 200 mW/cm2 for 10 mins; format: functional
[2] = Photosensitizing ability of the compound in methanol assessed as singlet oxygen production by measuring quantum yield upon irradiation by DPBF based assay relative to KNKQ; format: functional
[3] = Photosensitizing ability of the compound assessed as superoxide radical production upon irradiation by DHE probe based assay relative to KAKQ; format: functional
A549 [4] = assay: Induction of mitochondrial damage in human A549 cells assessed as increase in green fluorescence intensity measured upon light irradiation by JC-1 staining based fluorescence analysis; format: functional, cell-based
A549 [5] = assay: Induction of ferroptosis in human A549 cells assessed as increase in lipid peroxidation by measuring decrease in GSH level measured upon irradiation relative to control; format: functional
[6] = Photosensitizing ability of the compound assessed as hydroxyl radical production upon irradiation by HPF probe based assay relative to RuB; format: functional
4T1 = assay: Cytotoxicity against mouse 4T1 cells assessed as inhibition of cell growth incubated for 24 hrs measured under normoxia conditions by MTT assay; format: functional, cell-based; conditions: 4T1, 24 h
[7] = Photosensitizing ability of the compound assessed as hydroxyl radical production measured upon irradiation by HPF probe based assay; format: functional
A549 [8] = assay: Induction of apoptosis in human A549 cells assessed as early apoptotic cells measured under dark conditions by AnnexinV-FITC/PI staining based flow cytometric analysis (reference value: 0.12%); format: functional
[9] = Photosensitizing ability of the compound assessed as superoxide radical production measured upon irradiation by DHE probe based assay; format: functional
[10] = Photosensitizing ability of the compound assessed as superoxide radical production upon irradiation by DHE probe based assay relative to KNKQ; format: functional
[11] = Photosensitizing ability of the compound assessed as superoxide radical production measured upon irradiation by electron spin resonance analysis; format: functional
[12] = Phototoxicity against human A549 cells assessed as inhibition of cell growth incubated for 24 hrs measured under normoxia conditions and after two-photon excitation upon irradiation with light at 808 nm, 200 mW/cm2 for 10 mins by MTT assay; format: functional, cell-based; conditions: A549, light or radiation study
A549 [13] = assay: Photosensitizing ability of the compound in human A549 cells assessed as increase in intracellular superoxide generation by measuring increase in fluorescence intensity measured upon light irradiation under hypoxia conditions by DHE probe based fluorescence analysis; format: functional, cell-based
A549 [14] = assay: Induction of apoptosis in human A549 cells assessed as reduction in Bcl-2 expression measured upon light irradiation by western blot analysis relative to control; format: functional
[15] = Photosensitizing ability of the compound assessed as hydroxyl radical production upon irradiation by HPF probe based assay relative to KNKQ; format: functional
A549 [16] = assay: Cytotoxicity against human A549 cells assessed as inhibition of cell growth incubated for 24 hrs measured under normoxia conditions by MTT assay; format: functional, cell-based; conditions: A549, 24 h
[17] = Selectivity index, ratio of IC50 for cytotoxicity against human HFL1 cells measured under normoxia conditions to IC50 for cytotoxicity against human A549 cells measured under normoxia conditions; format: toxicity, cell-based; conditions: HFL1 cells versus A549 cells, read-out: Ratio IC50
A549 [18] = assay: In vivo photodynamic therapy based antitumor activity against human A549 cells xenografted in mouse assessed as tumor growth inhibition administered intratumorally on day 0 and 7 and measured on day 15; format: functional; conditions: route it(Intratumoral); time 15 day
[19] = Phototoxicity against human A549 cells assessed as inhibition of cell growth at 1.56 to 400 nM incubated for 24 hrs measured under normoxia conditions and after one-photon excitation upon irradiation with light at 520 nm, 200 mW/cm2 for 10 mins by MTT assay relative to control; format: functional; conditions: dose 1.56-400 nM
A549 [20] = assay: Induction of ROS generation in human A549 cells assessed as intracellular ROS level measured under normoxia conditions by DCFH-DA staining based fluorescence analysis; format: functional, cell-based
[21] = Toxicity against mouse xenografted with human A549 cells assessed as changes in biochemical indicators administered intratumorally followed by exposure to light on day 0 and 7 and measured on day 15; conditions: in vivo, other, 360 h, route it(Intratumoral), time 15 day
[22] = Photosensitizing ability of the compound in methanol assessed as singlet oxygen production by measuring quantum yield measured upon irradiation by DPBF based assay; format: functional
[23] = Toxicity against mouse xenografted with human A549 cells assessed as changes in biochemical indicators administered intratumorally on day 0 and 7 and measured on day 15; conditions: in vivo, other, 360 h, route it(Intratumoral), time 15 day
[24] = Toxicity against mouse xenografted with human A549 cells assessed as changes in hematological indicators administered intratumorally followed by exposure to light on day 0 and 7 and measured on day 15; conditions: in vivo, other, 360 h, route it(Intratumoral), time 15 day
A549 [25] = assay: Induction of DNA damage in human A549 cells assessed as increase in gammaH2AX expression measured upon light irradiation by western blot analysis relative to control; format: functional
A549 [26] = assay: Cytotoxicity against human A549 cells assessed as inhibition of cell growth incubated for 24 hrs measured under hypoxia conditions by MTT assay; format: functional, cell-based; conditions: A549, 24 h
A549 [27] = assay: Induction of apoptosis in human A549 cells assessed as early apoptotic cells measured upon light irradiation by AnnexinV-FITC/PI staining based flow cytometric analysis (reference value: 0.39%); format: functional
A549 [28] = assay: Induction of ROS generation in human A549 cells assessed as intracellular superoxide level measured under normoxia conditions by DHE probe based fluorescence analysis; format: functional, cell-based
[29] = Phototoxicity against human HT-29 cells assessed as inhibition of cell growth incubated for 24 hrs measured under normoxia conditions and after one-photon excitation upon irradiation with light at 520 nm, 200 mW/cm2 for 10 mins by MTT assay; format: functional, cell-based; conditions: HT-29, light or radiation study
A549 [30] = assay: Induction of ferroptosis in human A549 cells assessed as increase in lipid peroxidation by measuring decrease in GPX4 protein expression measured upon irradiation by western blot analysis relative to control; format: functional
A549 [31] = assay: Induction of autophagy in human A549 cells assessed as large circular vesicles engulfing small particles measured upon light irradiation by transmission electron microscopy; format: functional, cell-based
[32] = Photosensitizing ability of the compound assessed as hydroxyl radical production upon irradiation by HPF probe based assay relative to KAKQ; format: functional
A549 [33] = assay: Induction of apoptosis in human A549 cells assessed as viable cells measured under dark conditions by AnnexinV-FITC/PI staining based flow cytometric analysis (reference value: 99.7%); format: functional
A549 [34] = assay: Induction of autophagy in human A549 cells assessed as increase in active membrane bound form, […] expression measured upon light irradiation by western blot analysis relative to control; format: functional
[35] = Photosensitizing ability of the compound in methanol assessed as time duration of singlet oxygen production measured upon irradiation by DPBF based assay; format: functional
A549 [36] = assay: Induction of ferroptosis in human A549 cells assessed as increase in lipid peroxidation by measuring increase in MDA level measured upon irradiation relative to control; format: functional
[37] = Drug uptake in human A549 cells assessed as localization in mitochondria by measuring appearance of yellow fluorescence by Hoechst33342/MitoTracker dye based confocal laser scanning microscopic analysis; format: ADME

With `CCn1c2ccc(/C=C/c3cc[n+](C)c4ccccc34)cc2c2cc(N(c3ccccc3)c3ccccc3)ccc21.[I-]` the “Ratio IC50” value [1] was 11, the fold change (FC) [2] was 3 and the fold change (FC) [3] was 8. For the same compound, the Activity (A549 [4]) was “Active”, the “fold change (FC)” value (A549 [5]) was 100 and the fold change (FC) [6] was 3. The IC50 (4T1) was 1080 nM, the Activity [7] was “Active” and the Activity (A549 [8]) was 18.1%. The Activity [9] was “Active”, the fold change (FC) [10] was 8 and the Activity [11] was “Active”. The IC50 [12] was 130 nM, the Activity (A549 [13]) was “Active” and the “fold change (FC)” value (A549 [14]) was about 3. For the same compound, the fold change (FC) [15] was 3, the IC50 (A549 [16]) was 1470 nM and the selectivity ratio [17] was 6. For the same compound, the TGI (A549 [18]) was 70.6%, the “inhibition (INH)” value [19] was 24.4% and the Activity (A549 [20]) was “inactive”. For the same compound, the Activity [21] was “Non-toxic”, the Activity [22] was 0.38 and the Activity [23] was “Non-toxic”. For the same compound, the Activity [24] was “Non-toxic”, the “fold change (FC)” value (A549 [25]) was 4 and the IC50 (A549 [26]) was 1970 nM. For the same compound, the Activity (A549 [27]) was 2.36%, the Activity (A549 [28]) was “inactive” and the IC50 [29] was 29 nM. The “fold change (FC)” value (A549 [30]) was 3.3, the Activity (A549 [31]) was “Active” and the fold change (FC) [32] was 3. The Activity (A549 [33]) was 50.4%, the “fold change (FC)” value (A549 [34]) was 2 and the TIME [35] was under 0.133 h. The “fold change (FC)” value (A549 [36]) was 10 and the Drug uptake [37] was “Active”.
